Legend:
Test in all cases: isothermal titration calorimetry
Type in all cases: binding
FilZ [1] = molecular target: T1, FilZ (Pseudoalteromonas tetraodonis, UniProt A0AA37S473)
T1 construct: gene GCM10007914_23770; single PilZ domain protein
T1 sequence (A0AA37S473 1-133): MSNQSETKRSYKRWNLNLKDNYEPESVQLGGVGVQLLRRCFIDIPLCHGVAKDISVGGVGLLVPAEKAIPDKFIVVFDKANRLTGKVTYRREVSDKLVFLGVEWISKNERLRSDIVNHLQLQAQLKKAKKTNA

FilZ [2] = molecular target: T2, FilZ (Pseudoalteromonas tetraodonis, UniProt A0AA37S473, G58A)
T2 construct: gene GCM10007914_23770; single PilZ domain protein

FilZ [3] = molecular target: T3, FilZ (Pseudoalteromonas tetraodonis, UniProt A0AA37S473, D53A)
T3 construct: gene GCM10007914_23770; single PilZ domain protein

FilZ [4] = molecular target: T4, FilZ (Pseudoalteromonas tetraodonis, UniProt A0AA37S473, G101A)
T4 construct: gene GCM10007914_23770; single PilZ domain protein

FilZ [5] = molecular target: T5, FilZ (Pseudoalteromonas tetraodonis, UniProt A0AA37S473, R13A)
T5 construct: gene GCM10007914_23770; single PilZ domain protein

FilZ [6] = molecular target: T6, FilZ (Pseudoalteromonas tetraodonis, UniProt A0AA37S473, R9A)
T6 construct: gene GCM10007914_23770; single PilZ domain protein
T6 sequence (A0AA37S473 entry or part of it R9A): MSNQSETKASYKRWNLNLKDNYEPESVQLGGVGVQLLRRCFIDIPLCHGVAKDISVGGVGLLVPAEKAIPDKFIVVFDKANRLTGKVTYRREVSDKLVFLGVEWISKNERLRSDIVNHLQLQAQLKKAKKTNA

T5 sequence (A0AA37S473 entry or part of it R13A): as the sequence (A0AA37S473 entry or part of it R9A) above, with A9R, R13A counted along it
T4 sequence (A0AA37S473 entry or part of it G101A): as the sequence (A0AA37S473 entry or part of it R9A) above, with A9R, G101A counted along it
T3 sequence (A0AA37S473 entry or part of it D53A): as the sequence (A0AA37S473 entry or part of it R9A) above, with A9R, D53A counted along it
T2 sequence (A0AA37S473 entry or part of it G58A): as the sequence (A0AA37S473 entry or part of it R9A) above, with A9R, G58A counted along it

Nc1nc2c(ncn2[C@@H]2O[C@@H]3COP(=O)(O)O[C@H]4[C@@H](O)[C@H](n5cnc6c(=O)[nH]c(N)nc65)O[C@@H]4COP(=O)(O)O[C@H]3[C@H]2O)c(=O)[nH]1 [c-di-GMP]
Kd (FilZ [1]): 230 nM
completely lost the ability to bind (FilZ [2]): Mutants R9A, R13A, D53A, G58A, and G101A all completely lost the ability to bind c-di-GMP
completely lost the ability to bind (FilZ [3]): Mutants R9A, R13A, D53A, G58A, and G101A all completely lost the ability to bind c-di-GMP
completely lost the ability to bind (FilZ [4]): Mutants R9A, R13A, D53A, G58A, and G101A all completely lost the ability to bind c-di-GMP
completely lost the ability to bind (FilZ [5]): Mutants R9A, R13A, D53A, G58A, and G101A all completely lost the ability to bind c-di-GMP
completely lost the ability to bind (FilZ [6]): Mutants R9A, R13A, D53A, G58A, and G101A all completely lost the ability to bind c-di-GMP

Source: article PMC10304486, “The FilZ Protein Contains a Single PilZ Domain and Facilitates the Swarming Motility of Pseudoalteromonas sp. SM9913” (Microorganisms, 2023)
